Test results reported in ChEMBL document CHEMBL3352308, “Identification of constrained peptidomimetic chemotypes as HIV protease inhibitors” (Eur J Med Chem, 2014).

Assays:
[1] = target: Protease (Human immunodeficiency virus 1) (UniProt Q9YQ12); experiment: Inhibition of HIV-1 protease using DABCYL-Abu-Ser-Gln-Asn-Tyr-Pro-Ile-Val-Gln-EDANS as substrate preincubated at 10 uM for 15 mins before substrate addition measured over 15 mins by fluorometric assay
[2] = target: Protease (Human immunodeficiency virus 1) (UniProt Q9YQ12); experiment: Inhibition of HIV-1 protease using DABCYL-Abu-Ser-Gln-Asn-Tyr-Pro-Ile-Val-Gln-EDANS as substrate preincubated at 1 uM for 15 mins before substrate addition measured over 15 mins by fluorometric assay
Protease = Protease (Human immunodeficiency virus 1, UniProt Q9YQ12); experiment: Inhibition of HIV-1 protease using DABCYL-Abu-Ser-Gln-Asn-Tyr-Pro-Ile-Val-Gln-EDANS as substrate preincubated for 15 mins before substrate addition measured over 15 mins by fluorometric assay
Chain of Protease (Q9YQ12 whole entry): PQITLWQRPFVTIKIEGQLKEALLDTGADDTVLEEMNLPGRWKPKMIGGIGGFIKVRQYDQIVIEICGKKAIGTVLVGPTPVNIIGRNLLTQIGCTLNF

Chain of Protease (Human immunodeficiency virus 1) (Q9YQ12 as listed by the source): as the sequence (Q9YQ12 whole entry) above

inhibition [1] [%]	inhibition [2] [%]	IC50 (Protease) [µM]	SMILES
57	–	–	CCOC(=O)N1CCN(C(=O)[C@@H]2O[C@H]3CN(Cc4ccccc4)C(=O)[C@@H]2O3)CC1
31	–	–	O=C(NCCc1ccccc1)[C@@H]1O[C@H]2CN(Cc3ccccc3)C(=O)[C@@H]1O2
30	–	–	CC[C@H](C)[C@@H](C(=O)OC)N1C[C@@H]2O[C@@H](C(=O)N3CCCCC3)[C@@H](O2)C1=O
33	–	–	CNCCNC(=O)[C@@H]1O[C@@]2(c3ccccc3)CN(C(c3ccccc3)c3ccccc3)C(=O)[C@@H]1O2
49	–	–	CNCCNC(=O)[C@@H]1O[C@@H]2O[C@H]1C(=O)N(Cc1ccccc1)[C@H]2Cc1ccccc1
43	–	–	CCCC[C@@H](C(=O)OC)N1C[C@@H]2O[C@@H](C(=O)N3CCCCC3)[C@@H](O2)C1=O
63	–	–	CC(C)C[C@@H](C(=O)O)N1C[C@@H]2O[C@@H](C(=O)N3CCCCC3)[C@@H](O2)C1=O
75	45	5.6	O=C([C@@H]1O[C@@H]2O[C@H]1C(=O)N(Cc1ccccc1)[C@H]2Cc1ccccc1)N1CCN(CCO)CC1
17	–	–	O=C([C@@H]1O[C@@H]2O[C@H]1C(=O)N(Cc1ccccc1)[C@@H]2Cc1ccccc1)N1CCOCC1
81	–	–	C[C@@H](CO)NC(=O)[C@@H]1O[C@@H]2O[C@H]1C(=O)N(Cc1ccccc1)[C@@H]2Cc1ccccc1
46	–	–	CCCC[C@@H](C(=O)OC)N1C[C@H]2O[C@H](C(=O)N3CCCCC3)[C@H](O2)C1=O
67	33	7.5	CCCCNC(=O)[C@@H]1O[C@@H]2O[C@H]1C(=O)N(Cc1ccccc1)[C@H]2Cc1ccccc1
36	–	–	COC(=O)[C@H](CC(C)C)N1C[C@@H]2O[C@@H](C(=O)N3CCN(Cc4ccccc4)CC3)[C@@H](O2)C1=O
58	–	–	O=C([C@@H]1O[C@@H]2O[C@H]1C(=O)N(Cc1ccccc1)[C@@H]2Cc1ccccc1)N1CCC[C@H]1CO
80	–	–	CC(C)C[C@@H](CO)NC(=O)[C@@H]1O[C@@H]2O[C@H]1C(=O)N(Cc1ccccc1)[C@@H]2Cc1ccccc1
71	–	–	O=C([C@@H]1O[C@@]2(c3ccccc3)CN(C(c3ccccc3)c3ccccc3)C(=O)[C@@H]1O2)N1CCN(CCO)CC1

inhibition [1] [%]	inhibition [2] [%]	IC50 (Protease) [µM]	SMILES
68	69	1.9	O=C(NC1CCCCC1)[C@@H]1O[C@@H]2O[C@H]1C(=O)N(Cc1ccccc1)[C@H]2Cc1ccccc1
57	–	–	COC(=O)[C@H](CC(C)C)N1C[C@@H]2O[C@@H](C(=O)N[C@H](CO)CC(C)C)[C@@H](O2)C1=O
47	–	–	O=C([C@H]1O[C@@H]2CN(Cc3ccccc3)C(=O)[C@H]1O2)N1CCN(CCO)CC1
90	54	1.5	C[C@@H](CO)NC(=O)[C@@H]1O[C@H]2CN(Cc3ccccc3)C(=O)[C@@H]1O2
77	–	–	O=C1[C@@H]2O[C@H](CN1Cc1ccccc1)O[C@H]2C(=O)N1CCC[C@@H]1CO
21	–	–	O=C([C@@H]1O[C@H]2CN(Cc3ccccc3)C(=O)[C@@H]1O2)N1CCCCC1
56	–	–	CCCNC(=O)[C@@H]1O[C@@H]2O[C@H]1C(=O)N(Cc1ccccc1)[C@H]2Cc1ccccc1
59	–	–	O=C([C@@H]1O[C@@H]2O[C@H]1C(=O)N(Cc1ccccc1)[C@@H]2Cc1ccccc1)N1CCCCC1
75	–	–	CC(C)CCNC(=O)[C@@H]1O[C@@H]2O[C@H]1C(=O)N(Cc1ccccc1)[C@H]2Cc1ccccc1
34	–	–	O=C(NC1CCCCC1)[C@@H]1O[C@H]2CN(Cc3ccccc3)C(=O)[C@@H]1O2
66	–	–	CCCCNC(=O)[C@@H]1O[C@@]2(c3ccccc3)CN(C(c3ccccc3)c3ccccc3)C(=O)[C@@H]1O2
47	–	–	O=C(NCCCO)[C@@H]1O[C@H]2CN(Cc3ccccc3)C(=O)[C@@H]1O2
70	–	–	COC(=O)[C@H](CC(C)C)N1C[C@@H]2O[C@@H](C(=O)N3CCN(CCc4ccccc4)CC3)[C@@H](O2)C1=O
82	55	2.6	CC(C)C[C@@H](CO)NC(=O)[C@@H]1O[C@H]2CN(Cc3ccccc3)C(=O)[C@@H]1O2
78	60	0.7	C#CCNC(=O)[C@@H]1O[C@@H]2O[C@H]1C(=O)N(Cc1ccccc1)[C@H]2Cc1ccccc1
43	–	–	CC(C)C[C@H](C(=O)O)N1C[C@@H]2O[C@@H](C(=O)N3CCCCC3)[C@@H](O2)C1=O

SMILES	inhibition [1] [%]	inhibition [2] [%]	IC50 (Protease) [µM]
CC(C)CC(=O)N[C@H](C(=O)N[C@H](C(=O)N[C@@H](CC(C)C)[C@@H](O)CC(=O)N[C@@H](C)C(=O)N[C@@H](CC(C)C)[C@@H](O)CC(=O)O)C(C)C)C(C)C	74	56	–
